Source: publication PMC11864979, “First-in-class ultralong-target-residence-time p38α inhibitors as a mitosis-targeted therapy for colorectal cancer” (Nature Cancer, 2025)
Like-named read-outs stand apart in the source and are kept apart here.

Columns and labels:
Test in all cases: selectivity profiling in a panel of 340 wild-type kinases (Reaction Biology Europe)
Format in all cases: binding
340 wild-type kinases [1] = biological target: T1, 340 wild-type kinases (Homo sapiens, UniProt Q05397)
T1 construct: purchased Reaction Biology Europe

340 wild-type kinases [2] = biological target: T2, 340 wild-type kinases (Homo sapiens, UniProt P11362)
T2 construct: purchased Reaction Biology Europe

340 wild-type kinases [3] = biological target: T3, 340 wild-type kinases (Homo sapiens, UniProt Q9H4A3)
T3 construct: purchased Reaction Biology Europe

340 wild-type kinases [4] = biological target: T4, 340 wild-type kinases (Homo sapiens, UniProt O00141)
T4 construct: purchased Reaction Biology Europe
T4 sequence (O00141 1-431): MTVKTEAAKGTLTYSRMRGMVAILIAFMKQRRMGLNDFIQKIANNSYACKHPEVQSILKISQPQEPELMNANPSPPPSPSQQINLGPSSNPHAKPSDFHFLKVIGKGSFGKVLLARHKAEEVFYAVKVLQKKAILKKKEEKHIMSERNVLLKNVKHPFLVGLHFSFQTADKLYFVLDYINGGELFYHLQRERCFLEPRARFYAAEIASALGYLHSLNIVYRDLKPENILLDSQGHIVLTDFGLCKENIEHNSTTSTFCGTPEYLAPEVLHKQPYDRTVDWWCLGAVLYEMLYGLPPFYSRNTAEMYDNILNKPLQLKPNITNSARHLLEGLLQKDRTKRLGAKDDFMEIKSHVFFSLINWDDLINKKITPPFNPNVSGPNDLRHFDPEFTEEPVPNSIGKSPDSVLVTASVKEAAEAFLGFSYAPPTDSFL

340 wild-type kinases [5] = biological target: T5, 340 wild-type kinases (Homo sapiens, UniProt Q5VT25)
T5 construct: purchased Reaction Biology Europe

340 wild-type kinases [6] = biological target: T6, 340 wild-type kinases (Homo sapiens, UniProt O95819)
T6 construct: purchased Reaction Biology Europe

340 wild-type kinases [7] = biological target: T7, 340 wild-type kinases (Homo sapiens, UniProt Q13554)
T7 construct: purchased Reaction Biology Europe

340 wild-type kinases [8] = biological target: T8, 340 wild-type kinases (Homo sapiens, UniProt Q9HC98)
T8 construct: purchased Reaction Biology Europe

340 wild-type kinases [9] = biological target: T9, 340 wild-type kinases (Homo sapiens, UniProt P36894)
T9 construct: purchased Reaction Biology Europe

340 wild-type kinases [10] = biological target: T10, 340 wild-type kinases (Homo sapiens, UniProt O15111)
T10 construct: purchased Reaction Biology Europe
T10 sequence (O15111 1-745): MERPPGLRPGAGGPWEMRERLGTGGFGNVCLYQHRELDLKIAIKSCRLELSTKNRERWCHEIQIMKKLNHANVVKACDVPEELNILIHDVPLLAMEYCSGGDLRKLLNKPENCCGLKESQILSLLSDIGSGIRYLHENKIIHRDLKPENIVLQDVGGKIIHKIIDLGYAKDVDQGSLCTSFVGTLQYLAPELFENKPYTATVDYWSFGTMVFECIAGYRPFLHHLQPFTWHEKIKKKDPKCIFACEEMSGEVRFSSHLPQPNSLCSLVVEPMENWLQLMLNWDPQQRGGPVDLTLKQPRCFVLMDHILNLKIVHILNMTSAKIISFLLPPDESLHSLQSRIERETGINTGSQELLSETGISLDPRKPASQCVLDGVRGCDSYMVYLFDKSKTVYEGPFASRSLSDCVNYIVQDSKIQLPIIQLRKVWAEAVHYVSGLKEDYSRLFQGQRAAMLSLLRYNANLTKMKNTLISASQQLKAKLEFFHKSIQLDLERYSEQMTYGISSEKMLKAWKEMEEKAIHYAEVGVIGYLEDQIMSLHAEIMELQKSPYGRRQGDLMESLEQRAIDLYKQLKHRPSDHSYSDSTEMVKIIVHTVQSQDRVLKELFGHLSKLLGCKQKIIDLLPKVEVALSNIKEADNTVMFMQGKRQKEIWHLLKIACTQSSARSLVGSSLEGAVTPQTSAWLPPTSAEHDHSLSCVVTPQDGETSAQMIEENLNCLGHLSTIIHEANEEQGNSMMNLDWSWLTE

T2 sequence (P11362 22-822): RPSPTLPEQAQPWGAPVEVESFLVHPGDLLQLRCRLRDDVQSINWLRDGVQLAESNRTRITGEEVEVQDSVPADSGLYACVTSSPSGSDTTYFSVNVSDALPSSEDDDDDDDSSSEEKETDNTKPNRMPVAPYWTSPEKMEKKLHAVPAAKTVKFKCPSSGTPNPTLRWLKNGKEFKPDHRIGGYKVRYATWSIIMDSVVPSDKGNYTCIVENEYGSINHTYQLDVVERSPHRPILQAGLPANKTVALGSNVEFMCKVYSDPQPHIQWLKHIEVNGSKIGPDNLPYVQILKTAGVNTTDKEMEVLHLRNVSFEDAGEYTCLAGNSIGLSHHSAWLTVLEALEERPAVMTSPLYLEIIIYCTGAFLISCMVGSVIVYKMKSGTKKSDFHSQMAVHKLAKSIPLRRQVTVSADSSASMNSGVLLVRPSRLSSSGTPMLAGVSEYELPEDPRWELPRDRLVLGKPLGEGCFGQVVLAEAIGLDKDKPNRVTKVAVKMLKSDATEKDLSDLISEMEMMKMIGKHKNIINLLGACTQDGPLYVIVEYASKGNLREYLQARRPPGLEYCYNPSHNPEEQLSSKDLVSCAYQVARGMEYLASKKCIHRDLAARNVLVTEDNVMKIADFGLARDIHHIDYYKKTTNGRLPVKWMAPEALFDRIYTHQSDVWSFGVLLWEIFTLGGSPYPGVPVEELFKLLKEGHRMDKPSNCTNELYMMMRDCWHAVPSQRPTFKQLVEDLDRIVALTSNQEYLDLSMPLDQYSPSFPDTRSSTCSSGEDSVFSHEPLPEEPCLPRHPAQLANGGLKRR
T6 sequence (O95819 whole entry): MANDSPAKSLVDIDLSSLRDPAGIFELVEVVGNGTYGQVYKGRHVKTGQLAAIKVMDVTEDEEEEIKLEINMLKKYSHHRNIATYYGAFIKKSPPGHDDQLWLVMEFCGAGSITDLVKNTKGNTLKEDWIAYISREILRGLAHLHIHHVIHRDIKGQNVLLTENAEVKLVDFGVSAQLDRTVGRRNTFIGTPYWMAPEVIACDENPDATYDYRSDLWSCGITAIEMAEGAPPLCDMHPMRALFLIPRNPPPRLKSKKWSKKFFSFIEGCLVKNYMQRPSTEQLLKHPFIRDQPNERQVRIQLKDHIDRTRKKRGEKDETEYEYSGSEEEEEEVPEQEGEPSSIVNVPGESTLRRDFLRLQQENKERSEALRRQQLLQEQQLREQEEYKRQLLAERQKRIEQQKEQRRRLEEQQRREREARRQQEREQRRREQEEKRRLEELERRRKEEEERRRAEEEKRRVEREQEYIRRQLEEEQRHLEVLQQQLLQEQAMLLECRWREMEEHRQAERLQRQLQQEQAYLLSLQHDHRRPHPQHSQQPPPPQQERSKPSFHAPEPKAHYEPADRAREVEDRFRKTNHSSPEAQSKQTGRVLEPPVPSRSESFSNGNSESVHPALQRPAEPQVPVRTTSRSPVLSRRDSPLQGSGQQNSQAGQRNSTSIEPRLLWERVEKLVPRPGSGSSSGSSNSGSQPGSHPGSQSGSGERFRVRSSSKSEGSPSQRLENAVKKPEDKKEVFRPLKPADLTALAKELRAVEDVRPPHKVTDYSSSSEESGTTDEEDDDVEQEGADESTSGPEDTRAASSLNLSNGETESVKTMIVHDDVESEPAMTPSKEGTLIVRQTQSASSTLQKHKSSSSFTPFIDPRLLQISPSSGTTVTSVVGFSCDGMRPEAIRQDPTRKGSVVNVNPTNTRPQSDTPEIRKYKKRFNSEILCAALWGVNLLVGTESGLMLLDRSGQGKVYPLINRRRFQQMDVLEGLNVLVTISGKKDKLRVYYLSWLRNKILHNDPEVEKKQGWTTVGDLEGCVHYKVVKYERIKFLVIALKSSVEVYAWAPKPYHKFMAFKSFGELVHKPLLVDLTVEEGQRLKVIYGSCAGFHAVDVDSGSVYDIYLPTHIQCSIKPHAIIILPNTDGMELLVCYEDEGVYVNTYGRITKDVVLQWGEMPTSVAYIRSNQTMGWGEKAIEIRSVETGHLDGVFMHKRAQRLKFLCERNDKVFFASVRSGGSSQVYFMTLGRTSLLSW
T3 sequence (Q9H4A3 whole entry): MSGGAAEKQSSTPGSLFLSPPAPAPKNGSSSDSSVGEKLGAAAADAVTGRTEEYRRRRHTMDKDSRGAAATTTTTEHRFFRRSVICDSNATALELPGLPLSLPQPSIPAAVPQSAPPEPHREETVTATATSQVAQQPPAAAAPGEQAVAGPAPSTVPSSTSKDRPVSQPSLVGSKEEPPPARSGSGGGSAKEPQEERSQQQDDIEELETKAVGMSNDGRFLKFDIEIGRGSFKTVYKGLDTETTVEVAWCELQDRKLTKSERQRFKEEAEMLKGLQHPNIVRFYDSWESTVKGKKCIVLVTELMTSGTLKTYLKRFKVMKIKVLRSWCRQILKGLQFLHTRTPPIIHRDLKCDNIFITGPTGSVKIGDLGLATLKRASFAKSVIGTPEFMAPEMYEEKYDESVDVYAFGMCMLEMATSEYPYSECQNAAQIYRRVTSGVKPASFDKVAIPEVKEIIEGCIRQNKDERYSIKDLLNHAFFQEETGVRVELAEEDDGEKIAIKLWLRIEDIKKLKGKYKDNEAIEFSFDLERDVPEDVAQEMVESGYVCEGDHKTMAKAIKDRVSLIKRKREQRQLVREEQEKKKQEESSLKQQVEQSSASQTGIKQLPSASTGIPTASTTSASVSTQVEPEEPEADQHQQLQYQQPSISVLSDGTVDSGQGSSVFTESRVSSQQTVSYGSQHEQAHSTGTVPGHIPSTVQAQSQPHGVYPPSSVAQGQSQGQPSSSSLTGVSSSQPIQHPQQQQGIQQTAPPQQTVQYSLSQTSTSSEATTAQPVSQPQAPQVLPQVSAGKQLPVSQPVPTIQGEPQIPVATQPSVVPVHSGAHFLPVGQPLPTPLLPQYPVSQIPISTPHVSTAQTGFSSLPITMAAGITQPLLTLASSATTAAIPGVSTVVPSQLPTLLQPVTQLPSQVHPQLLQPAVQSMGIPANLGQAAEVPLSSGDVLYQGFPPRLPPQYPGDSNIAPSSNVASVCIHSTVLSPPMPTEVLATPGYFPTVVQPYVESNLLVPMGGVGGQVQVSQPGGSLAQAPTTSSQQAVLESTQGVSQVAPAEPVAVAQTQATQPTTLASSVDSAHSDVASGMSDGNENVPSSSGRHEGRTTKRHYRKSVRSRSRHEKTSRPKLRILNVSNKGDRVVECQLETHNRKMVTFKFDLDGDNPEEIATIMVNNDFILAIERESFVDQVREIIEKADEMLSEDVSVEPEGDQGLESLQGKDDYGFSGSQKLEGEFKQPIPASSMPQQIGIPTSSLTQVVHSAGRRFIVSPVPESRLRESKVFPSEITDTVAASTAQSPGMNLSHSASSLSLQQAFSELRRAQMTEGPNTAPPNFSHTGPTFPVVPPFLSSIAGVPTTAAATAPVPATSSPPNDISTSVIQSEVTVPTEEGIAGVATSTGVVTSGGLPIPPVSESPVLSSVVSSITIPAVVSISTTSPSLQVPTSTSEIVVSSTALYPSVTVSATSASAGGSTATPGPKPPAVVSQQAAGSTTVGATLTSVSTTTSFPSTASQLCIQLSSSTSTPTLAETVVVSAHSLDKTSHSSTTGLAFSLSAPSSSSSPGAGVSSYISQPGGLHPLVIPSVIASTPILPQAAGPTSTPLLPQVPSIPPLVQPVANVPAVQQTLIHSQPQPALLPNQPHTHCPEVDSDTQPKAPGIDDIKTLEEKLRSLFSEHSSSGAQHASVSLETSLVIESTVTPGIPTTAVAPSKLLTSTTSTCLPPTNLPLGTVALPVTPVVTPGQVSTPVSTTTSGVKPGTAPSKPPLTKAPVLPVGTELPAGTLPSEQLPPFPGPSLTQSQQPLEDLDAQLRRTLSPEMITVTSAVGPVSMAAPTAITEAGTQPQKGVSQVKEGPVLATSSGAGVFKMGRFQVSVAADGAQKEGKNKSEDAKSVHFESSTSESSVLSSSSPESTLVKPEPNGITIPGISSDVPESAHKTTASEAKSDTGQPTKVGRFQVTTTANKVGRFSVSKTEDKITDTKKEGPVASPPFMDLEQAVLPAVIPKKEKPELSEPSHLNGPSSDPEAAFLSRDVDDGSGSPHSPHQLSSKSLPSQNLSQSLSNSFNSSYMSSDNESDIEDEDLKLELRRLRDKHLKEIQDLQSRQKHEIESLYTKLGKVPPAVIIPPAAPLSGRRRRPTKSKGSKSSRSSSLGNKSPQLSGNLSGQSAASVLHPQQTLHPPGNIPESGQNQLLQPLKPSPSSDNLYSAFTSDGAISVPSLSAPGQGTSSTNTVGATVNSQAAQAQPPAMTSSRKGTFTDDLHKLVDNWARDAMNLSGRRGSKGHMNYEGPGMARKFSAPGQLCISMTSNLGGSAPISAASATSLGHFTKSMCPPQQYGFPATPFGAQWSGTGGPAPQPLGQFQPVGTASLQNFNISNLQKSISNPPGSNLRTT
T9 sequence (P36894 24-532): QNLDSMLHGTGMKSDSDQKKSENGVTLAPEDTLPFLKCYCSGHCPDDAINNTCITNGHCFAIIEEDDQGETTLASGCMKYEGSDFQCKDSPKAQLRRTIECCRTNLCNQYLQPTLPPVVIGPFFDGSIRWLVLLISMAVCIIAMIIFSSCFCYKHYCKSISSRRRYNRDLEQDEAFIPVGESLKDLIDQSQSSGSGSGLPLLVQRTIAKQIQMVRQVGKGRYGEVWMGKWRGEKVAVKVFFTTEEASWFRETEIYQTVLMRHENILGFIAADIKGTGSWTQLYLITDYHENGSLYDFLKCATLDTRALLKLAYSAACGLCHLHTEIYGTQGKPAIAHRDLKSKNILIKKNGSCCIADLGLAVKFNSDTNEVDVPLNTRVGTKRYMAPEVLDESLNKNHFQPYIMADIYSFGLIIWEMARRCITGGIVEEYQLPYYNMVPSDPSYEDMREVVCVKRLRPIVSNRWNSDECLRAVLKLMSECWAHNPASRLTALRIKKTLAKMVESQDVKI

## CNC(=O)c1ccc2c(c1)C(=O)c1ccc(Nc3ccc(F)c(NC(=O)C4CC4)c3)cc1CC2 [Compound 2015]
340 wild-type kinases [1]; 0.2 µM 2015, read-out: FAK residual activity
  remaining activity at 0.2 µM: 121%
340 wild-type kinases [1]; 1 µM 2015, read-out: FAK residual activity
  remaining activity at 1 µM: 115%
340 wild-type kinases [1]; FAK, 0.2 µM, read-out: residual activity
  remaining activity at 0.2 µM: 121%
340 wild-type kinases [1]; FAK, 1 µM, read-out: residual activity
  remaining activity at 1 µM: 115%
340 wild-type kinases [2]; 0.2 µM 2015, read-out: FGFR1 residual activity
  remaining activity at 0.2 µM: 105%
340 wild-type kinases [2]; 1 µM 2015, read-out: FGFR1 residual activity
  remaining activity at 1 µM: 111%
340 wild-type kinases [2]; FGFR1, 0.2 µM, read-out: residual activity
  remaining activity at 0.2 µM: 105%
340 wild-type kinases [2]; FGFR1, 1 µM, read-out: residual activity
  remaining activity at 1 µM: 111%
340 wild-type kinases [3]; 0.2 µM 2015, read-out: WNK1 residual activity
  remaining activity at 0.2 µM: 95%
340 wild-type kinases [3]; 1 µM 2015, read-out: WNK1 residual activity
  remaining activity at 1 µM: 91.4%
340 wild-type kinases [3]; WNK1, 0.2 µM, read-out: residual activity
  remaining activity at 0.2 µM: 95%
340 wild-type kinases [3]; WNK1, 1 µM, read-out: residual activity
  remaining activity at 1 µM: 91.4%
340 wild-type kinases [4]; 0.2 µM 2015, read-out: SGK1 residual activity
  remaining activity at 0.2 µM: 95.9%
340 wild-type kinases [4]; 1 µM 2015, read-out: SGK1 residual activity
  remaining activity at 1 µM: 91.4%
340 wild-type kinases [4]; SGK1, 0.2 µM, read-out: residual activity
  remaining activity at 0.2 µM: 95.8%
340 wild-type kinases [4]; SGK1, 1 µM, read-out: residual activity
  remaining activity at 1 µM: 91.4%
340 wild-type kinases [5]; 0.2 µM 2015, read-out: CDC42BPA residual activity
  remaining activity at 0.2 µM: 118%
340 wild-type kinases [5]; 1 µM 2015, read-out: CDC42BPA residual activity
  remaining activity at 1 µM: 112%
340 wild-type kinases [5]; CDC42BPA, 0.2 µM, read-out: residual activity
  remaining activity at 0.2 µM: 118%
340 wild-type kinases [5]; CDC42BPA, 1 µM, read-out: residual activity
  remaining activity at 1 µM: 112%
340 wild-type kinases [6]; 0.2 µM 2015, read-out: MAP4K4 residual activity
  remaining activity at 0.2 µM: 90.2%
340 wild-type kinases [6]; 1 µM 2015, read-out: MAP4K4 residual activity
  remaining activity at 1 µM: 81.8%
340 wild-type kinases [6]; MAP4K4, 0.2 µM, read-out: residual activity
  remaining activity at 0.2 µM: 90.2%
340 wild-type kinases [6]; MAP4K4, 1 µM, read-out: residual activity
  remaining activity at 1 µM: 81.8%
340 wild-type kinases [7]; 0.2 µM 2015, read-out: CAMK2B residual activity
  remaining activity at 0.2 µM: 112%
340 wild-type kinases [7]; 1 µM 2015, read-out: CAMK2B residual activity
  remaining activity at 1 µM: 89%
340 wild-type kinases [7]; CAMK2B, 0.2 µM, read-out: residual activity
  remaining activity at 0.2 µM: 112%
340 wild-type kinases [7]; CAMK2B, 1 µM, read-out: residual activity
  remaining activity at 1 µM: 89%
340 wild-type kinases [8]; 0.2 µM 2015, read-out: NEK6 residual activity
  remaining activity at 0.2 µM: 95.6%
340 wild-type kinases [8]; 1 µM 2015, read-out: NEK6 residual activity
  remaining activity at 1 µM: 99.3%
340 wild-type kinases [8]; NEK6, 0.2 µM, read-out: residual activity
  remaining activity at 0.2 µM: 95.6%
340 wild-type kinases [8]; NEK6, 1 µM, read-out: residual activity
  remaining activity at 1 µM: 99.3%
340 wild-type kinases [9]; 0.2 µM 2015, read-out: BMPR1A residual activity
  remaining activity at 0.2 µM: 95.6%
340 wild-type kinases [9]; 1 µM 2015, read-out: BMPR1A residual activity
  remaining activity at 1 µM: 98.5%
340 wild-type kinases [9]; BMPR1A, 0.2 µM, read-out: residual activity
  remaining activity at 0.2 µM: 95.6%
340 wild-type kinases [9]; BMPR1A, 1 µM, read-out: residual activity
  remaining activity at 1 µM: 98.5%
340 wild-type kinases [10]; 0.2 µM 2015, read-out: IKKalpha residual activity
  remaining activity at 0.2 µM: 97.6%
340 wild-type kinases [10]; 1 µM 2015, read-out: IKKalpha residual activity
  remaining activity at 1 µM: 92%
340 wild-type kinases [10]; IKKalpha, 0.2 µM, read-out: residual activity
  remaining activity at 0.2 µM: 97.6%
340 wild-type kinases [10]; IKKalpha, 1 µM, read-out: residual activity
  remaining activity at 1 µM: 92%
